Reference: US8377874
Where two headings read alike, the source gives them in different places.

Settings: rcm bond, Zhan catalyst 1B

With `COc1cc2nc(-c3ccccc3)cc3c2cc1C=CCCCOC(=O)N[C@H]1CCCCCC=C[C@@H]2C[C@@]2(C(=O)NS(=O)(=O)C2CC2)NC(=O)[C@@H]2C[C@H](CN2C1=O)O3` the ring closure, yield of all isomers (from C=CCCCCC[C@H](NC(=O)OCCCC=C)C(=O)N1C[C@H](Oc2cc(-c3ccccc3)nc3cc(OC)c(C=C)cc23)C[C@H]1C(=O)N[C@]1(C(=O)NS(=O)(=O)C2CC2)C[C@H]1C=C, 1,2-dichloroethane, 4.73 mM, 90.0 °C, 3.0 h) was 6.1%.

For `CCOC(=O)[C@@]12C[C@H]1/C=C\CCCCC[C@@H]1NC(=O)OCC(C)(C)CC=Cc3cc4c(nccc4cc3OC)O[C@@H]3C[C@@H](C(=O)N2)N(C3)C1=O`, the ring closure, yield of all isomers (from C=CCC(C)(C)COC(=O)N[C@H]1CCCCC/C=C\[C@@H]2C[C@@]2(C(=O)OCC)NC(=O)[C@@H]2C[C@@H](Oc3nccc4cc(OC)c(C=C)cc34)CN2C1=O, DCM, 10.2 mM, 40.0 °C, 5.0 h) was 80.8%.

In the case of `CCOC(=O)[C@@]12C[C@H]1/C=C\CCCCC[C@H](NC(=O)OC(C)(C)C)C(=O)N1C[C@H](Oc3nccc4cc(OC)c(Br)cc34)C[C@H]1C(=O)N2`, the ring closure, yield of all isomers (from C=CCCCCC[C@H](NC(=O)OC(C)(C)C)C(=O)N1C[C@H](Oc2nccc3cc(OC)c(Br)cc23)C[C@H]1C(=O)N[C@]1(C(=O)OCC)C[C@H]1C=C, DCM, 10.15 mM, 40.0 °C, 2.0 h) is reported as 70.1%.

`CCOC(=O)[C@@]12C[C@H]1C=CCCCCC[C@@H]1NC(=O)OCC(C)(C)CC=Cc3cc4c(cc(-c5ccccc5)nc4cc3OC)O[C@@H]3C[C@@H](C(=O)N2)N(C3)C1=O` gave a ring closure, yield of all isomers (from C=CCCCCC[C@H](NC(=O)OCC(C)(C)CC=C)C(=O)N1C[C@H](Oc2cc(-c3ccccc3)nc3cc(OC)c(C=C)cc23)C[C@H]1C(=O)N[C@]1(C(=O)OCC)C[C@H]1C=C, DCM, 5.0 mM, 40.0 °C, 7.0 h) of 49%.
